Reference: US20250073211A1, “USE OF ERGOTHIONEINE TO SUPPRESS DELETERIOUS EFFECTS OF SENESCENCE” (NANJING NUTRABUILDING BIO-TECH CO., LTD., priority 2022, published 2025)

Tests used:
[1] = tested on: HDFn cells; assay: Senolytic Profile Assay (cell counts and senescence markers after 3 days of acute treatment at passage 31); format: cell-based, Human; conditions: for Ki67-positive population: day 9 to 12 timepoint, 0 μM: 3.4%±1.5, p<0.001; for percentage of p21 positive HDFn cells / percentage of p16 positive HDFn cells: timepoint 1 (day 0 to 3); for percentage of p21 positive HDFn cells: 0 μM: 63.1%±9.3; for percentage of p16 positive HDFn cells: 0 μM: 67.8%±4.7; for cell counts: 3 days of treatment
Description: (§1) HDFn cells (C0045C, Thermo Scientific, US) were obtained and proliferated to passage 32 (population doubling 58) in standard DMEM proliferation medium (10% FBS) at standard culture conditions (37°° C., 20% O2, 5% CO2). At each passage, cells were cryopreserved and banked. The cells were deemed replicatively senescent at passage 32. When required, cryovial contents was thawed gradually into 5 ml pre-warmed 10% FBS media with gentle pipetting and centrifuged. The supernatant was discarded, and the cell pellet was resuspended into 10% media and cells were counted using a hemocytometer and trypan blue.
Treatment conditions tested in this assay were 0, 3, 30 and 300 μM of EGT as an acute supplementation over 3 days in standard DMEM (10% FBS). Positive controls for senolytic activity were 13 μM of Navitoclax and 600 μM of Fisetin. A 0.1% DMSO condition was introduced as a vehicle control for Fisetin. At passage 31, the HDFn cells were seeded at 10,000 cells per well in triplicate wells onto 48-well plates. After 2 days of acclimatization, cells were treated for 3 days with the conditions above. The cells were then washed with PBS and fixed with 2% PFA. The wells were filled with PBS and stored at 4° C. until immunostaining. For β-galactosidase staining, the staining solution was added onto the cells immediately after fixation and incubated at 37° C. for 24 h. The staining solution was removed, and the wells filled with PBS until imaging. This was repeated for timepoints day 0 to 3, day 6 to 9, and day 9 to 12.
(§2) The panel of senescence markers, Ki67, p16 and p21 were analyzed by immunohistochemical staining using an HRP/DAB kit (ab64264, Abcam, UK). • Antibody details • 1) Ki67—1:1000 dilution, anti-rabbit, ab92742, Abcam; • 2) p16—1:500 dilution, anti-rabbit, ab 108349, Abcam; • 3) p21—1:100 dilution, anti-rabbit, ab 109542, Abcam.
(§3) The cells were counterstained with hematoxylin.
(§4) The senescence-associated β-galactosidase solutions and staining was performed according to Dimri et al, A biomarker that identifies senescent human cells in culture and in aging skin in vivo, Proc. Natl. Acad. Sci. 1995 Sep. 26; 92 (20): 9363-9367. The cells were counterstained with Nuclear Fast Red.
(§5) All staining were imaged on an EVOS XL core microscope at 100× magnification.
(§6) The images were white balanced using a macro on ImageJ. Cells were manually counted using the cell counter plugin and recorded. Graphs and statistics were created using GraphPad Prism 5. For each dataset, a two-way ANOVA was performed with Bonferroni posthoc test against the untreated control. P-values on the graphs are shown as *p<0.05, ** p<0.01, *** p<0.001.

[2] = tested on: HDFn cells; assay: Senostatic Profile Assay (senescence markers Ki67, p21, p16, SAβG under chronic supplementation); format: cell-based, Human; conditions: for percentage of SAβG positive HDFn cells: untreated 9.8%±2.7
Description: as §1
Treatment conditions tested in this assay were 0, 0.5, 3.0 and 30 μM of EGT as a constant supplementation in standard DMEM (10% FBS). HDFn cells were thawed at passage 20 and seeded at 1.5×10^5 cells per flask. Three flasks per condition were seeded. Media was changed every three days. At passages 22, 24, and 26, the HDFn cells were seeded onto 48-well plates at 10,000 cells per well in triplicates per flask, and cultured in DMEM media containing 0, 0.5, 3.0, and 30 μM of EGT, respectively. The cells were proliferated until 70% confluence or for 7 days. The cells were then washed with PBS and fixed with 2% PFA, and stored at 4° C. until immunostaining. For β-galactosidase staining, the staining solution was added onto the cells immediately after fixation and incubated at 37° C. for 24 h. The staining solution was removed, and the wells filled with PBS until imaging. As a positive control for senescence phenotype, one set of wells from the untreated flasks were seeded. At 70% confluence, the cells were treated with 600 μM of hydrogen peroxide in serum-free DMEM for 2 h, then incubated with standard DMEM proliferation medium for 5 days to allow the senescence phenotype to develop. The cells were fixed and stained in the same manner as the other treatment conditions.
as §2, §3, §4, §5, §6

C[N+](C)(C)[C@@H](Cc1c[nH]c(=S)[nH]1)C(=O)[O-] [EGT, L-Ergothioneine] was tested, and the senolytic activity ([1]; HDFn cells at passage 31, at up to 300 μM) was “not senolytic”, the Ki67-positive population ([1]; passage 31, 30 μM EGT) was 9.2%±3.8 and the “percentage of p21 positive HDFn cells” value ([1]; passage 31, 30 μM EGT) was 29.1%±7.4. For the same molecule, the “percentage of p16 positive HDFn cells” value ([1]; passage 31, 30 μM EGT) was 7.0%±2.8, the Ki67-positive population ([1]; passage 31, 300 μM EGT) was 11.4%±2.6 and the “percentage of p21 positive HDFn cells” value ([1]; passage 31, 300 μM EGT) was 27.0%±2.0. For the same molecule, the “percentage of p16 positive HDFn cells” value ([1]; passage 31, 300 μM EGT) was 11.7%±5.9, the cell counts ([1]; passage 31, 3, 30 and 300 μM EGT vs 0 μM) was “did not change much” and the “effect on the percentage of SAβG positive HDFn cells” value ([1]; passage 31, EGT 3, 30, 300 μM, any timepoint) was “no statistically significant effect”. The “effect on the percentage of p16 positive HDFn cells” value ([2]; across all three passages (22, 24, 26), EGT 0.5, 3.0, 30 μM) was “did not robustly affect”, the “change of percentage of Ki67 positive HDFn cells compared with the untreated control” value ([2]; all three passages (22, 24, 26), EGT 0.5, 3.0, 30 μM constant supplementation) was “did not result in statistically significant changes” and the senostatic effect ([2]; low chronic doses (0.5-30 μM) in HDFn cells) was “can confer senostatic effects”. The “reduction of the percentage of p21 positive HDFn cells” value ([2]; passage 22, 0.5 μM EGT, p<0.001) was 16.5%, the “percentage of p21 positive HDFn cells” value ([2]; passage 22, 0.5 μM EGT, untreated 82.5%±2.3, mean±SEM) was 66.0%±2.4 and the “reduction of the percentage of p21 positive HDFn cells” value ([2]; passage 22, 3 μM EGT, p<0.001) was 20.1%. The “reduction of the percentage of p21 positive HDFn cells” value ([2]; passage 22, 30 μM EGT, p<0.001) was 21.8%, the “reduction in p16-positive cells” value ([2]; passage 24, 0.5 μM EGT, p<0.001) was 15% and the “change of percentage of p21 positive HDFn cells” value ([2]; passage 24 or 26, EGT 0.5, 3.0, 30 μM) was “did not result in statistically significant changes”. The “percentage of SAβG positive HDFn cells” value ([2]; passage 26, 0.5 μM EGT, p<0.001) was 4.8%±5.7, the “percentage of SAβG positive HDFn cells” value ([2]; passage 26, 3.0 μM EGT, p<0.001) was 3.5%±2.0 and the “percentage of SAβG positive HDFn cells” value ([2]; passage 26, 30 μM EGT, p<0.001) was 5.0%±2.9. For the same molecule, the “mean SAβG reduction” value ([2]; passage 26, mean over 0.5, 3.0 and 30 μM EGT) was 50%.

In the case of O=c1c(O)c(-c2ccc(O)c(O)c2)oc2cc(O)ccc12 [FIS, Fisetin, reference compound], the cell counts ([1]; passage 31, 600 μM Fisetin, positive control) is reported as “dramatically decreased”.

With CC1(C)CCC(c2ccc(Cl)cc2)=C(CN2CCN(c3ccc(C(=O)NS(=O)(=O)c4ccc(N[C@H](CCN5CCOCC5)CSc5ccccc5)c(S(=O)(=O)C(F)(F)F)c4)cc3)CC2)C1 [NAV, Navitoclax, reference compound] the cell counts ([1]; passage 31, 13 μM Navitoclax, positive control) was “dramatically decreased”.

OO [hydrogen peroxide, reference compound] was tested, and the “SAβG levels (senescence-associated β-galactosidase positive HDFn cells)” value ([2]; 600 μM hydrogen peroxide for 2 h, then 5 days, positive control for senescence phenotype) was “remained low”.
